AC50 data for 23 molecules are collected here from patent US20260138961A1, “MODULATORS OF MITOCHONDRIAL DNA REPLICATION” (Pretzel Therapeutics, Inc., priority 2022, published 2026).

Each structure is given as a SMILES string.

For the test, the target named is T1, POLγ W748S + E1143G (Homo sapiens, UniProt P54098, E1143G/W748S).
T1 sequence (P54098 1-1239 W748S/E1143G): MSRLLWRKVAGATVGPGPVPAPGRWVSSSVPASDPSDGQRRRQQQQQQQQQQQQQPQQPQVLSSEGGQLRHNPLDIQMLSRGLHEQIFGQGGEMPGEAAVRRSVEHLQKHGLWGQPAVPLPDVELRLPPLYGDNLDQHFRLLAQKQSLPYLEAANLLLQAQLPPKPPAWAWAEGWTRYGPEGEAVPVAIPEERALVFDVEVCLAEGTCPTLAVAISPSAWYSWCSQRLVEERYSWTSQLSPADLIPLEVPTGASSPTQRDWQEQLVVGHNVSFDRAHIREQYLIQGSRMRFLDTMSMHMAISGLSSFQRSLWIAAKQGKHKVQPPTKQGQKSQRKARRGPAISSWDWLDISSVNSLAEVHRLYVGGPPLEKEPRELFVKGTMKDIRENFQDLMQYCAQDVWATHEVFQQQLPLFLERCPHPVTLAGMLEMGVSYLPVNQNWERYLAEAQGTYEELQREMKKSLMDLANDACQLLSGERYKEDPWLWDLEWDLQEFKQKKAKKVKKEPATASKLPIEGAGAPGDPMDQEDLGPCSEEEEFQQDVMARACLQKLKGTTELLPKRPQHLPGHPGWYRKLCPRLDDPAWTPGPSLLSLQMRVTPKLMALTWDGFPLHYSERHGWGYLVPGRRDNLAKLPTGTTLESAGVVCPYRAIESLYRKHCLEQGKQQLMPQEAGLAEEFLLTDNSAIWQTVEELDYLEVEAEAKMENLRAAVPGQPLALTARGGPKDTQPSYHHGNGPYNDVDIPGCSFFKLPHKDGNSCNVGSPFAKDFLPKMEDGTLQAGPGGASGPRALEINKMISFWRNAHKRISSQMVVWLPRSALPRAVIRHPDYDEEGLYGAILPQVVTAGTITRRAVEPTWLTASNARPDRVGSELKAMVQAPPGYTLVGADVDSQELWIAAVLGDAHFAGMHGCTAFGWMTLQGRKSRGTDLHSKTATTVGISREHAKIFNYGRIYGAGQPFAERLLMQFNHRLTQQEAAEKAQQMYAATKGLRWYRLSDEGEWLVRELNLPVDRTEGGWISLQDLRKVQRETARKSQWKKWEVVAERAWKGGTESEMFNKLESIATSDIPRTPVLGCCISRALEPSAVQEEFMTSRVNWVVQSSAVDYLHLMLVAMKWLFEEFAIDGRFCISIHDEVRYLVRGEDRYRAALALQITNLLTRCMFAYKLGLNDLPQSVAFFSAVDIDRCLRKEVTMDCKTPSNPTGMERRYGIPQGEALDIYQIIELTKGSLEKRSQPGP
T1 sequence (Q9UHN1 1-485 partner): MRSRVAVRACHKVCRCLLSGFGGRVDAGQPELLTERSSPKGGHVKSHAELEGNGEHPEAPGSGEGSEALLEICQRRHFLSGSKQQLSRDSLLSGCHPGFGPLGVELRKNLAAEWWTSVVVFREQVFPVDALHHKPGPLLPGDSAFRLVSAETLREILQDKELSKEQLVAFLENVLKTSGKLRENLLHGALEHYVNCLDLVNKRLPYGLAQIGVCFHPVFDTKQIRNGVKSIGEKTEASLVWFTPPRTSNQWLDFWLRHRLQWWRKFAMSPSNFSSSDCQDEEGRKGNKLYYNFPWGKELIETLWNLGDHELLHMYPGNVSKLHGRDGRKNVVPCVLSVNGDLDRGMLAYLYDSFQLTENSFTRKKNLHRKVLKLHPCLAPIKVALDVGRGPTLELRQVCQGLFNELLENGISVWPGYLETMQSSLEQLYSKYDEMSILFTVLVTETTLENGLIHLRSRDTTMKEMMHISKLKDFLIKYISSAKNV
Briefly: DNA polymerization assay, W748S + E1143G mutant. The class given is biochemical. The conditions noted are these: stimulation of polymerase activity, primed M13mp18 ssDNA, 37° C. 2 hours. Here is the method:
DNA Polymerization Assay to Monitor Effects on Human Wildtype POLγ and Four Disease-Causing Mutant Variants of Human POLγ.
The ability of small molecules to stimulate the polymerase activity of POLγ was analyzed in a quantitative fluorescence SYBR Green I assay with fluorescence intensity (FI) readout.
In the presence of dNTPs, wild type human POLγ and mutant derivatives thereof were incubated with single-stranded, circular M13mp18 ssDNA hybridized to a short DNA oligonucleotide that functions as a primer for initiation of DNA synthesis. POLγ and mutant derivatives thereof will extend the primer and use the M13mp18 molecule as a template to synthesize long stretches of double-stranded DNA. SYBR Green I, which is a double-stranded DNA-binding dye, was used to quantify formation of double-stranded DNA in the reaction. When bound to double-stranded DNA, SYBR Green I fluorescence increases by up to 100-fold.
The assay was performed in the 384-well plate format. Upon addition of compounds, changes in double-stranded DNA synthesis activity can be monitored by following effects on fluorescent intensity.
The reactions also contained the accessory POLγB subunit, and the human mitochondrial single-stranded DNA binding protein (mtSSB).
The DNA template mixture used in the assay contained 0.5 nM primed M13 mp18 ssDNA, 400 nM mtSSB, 0.1 mM Tris-HCl (pH 8.0), 0.1 mM dNTP, 10 mM MgCl2, 0.1 mg/mL BSA, 1 mM TCEP solution, and 0.02% Triton X-100. The DNA template mixture for the wild type protein contained either 100 μM dNTP, 1 μM dNTP, or 0.1 μM dNTP, designated in Table 2 as 100 μM, 1 μM, and 0.1 μM, respectfully.
Microplates with compounds (0.1 μL in each well) to be tested in the assay were prepared from 10 mM compound stocks in 100% DMSO, and equal amounts of DMSO without any compound were added to positive and negative control wells.
The protein mixture was dispensed (5 μL into each well) into compound plates and incubated at 37° C. for 15 minutes. After incubation, 5 μL of the DNA template mixture was dispensed into each well. The plates were then incubated at 37° C. for 2 hours.
During incubation, a combined stop buffer and detection reagent solution was prepared. The buffer contained 25 mM EDTA (pH 8.0), 0.02% Triton X-100, and SYBR Green I [Invitrogen] diluted 10,000× (for fluorescent readout). EDTA will stop the enzymatic reaction by chelating magnesium ions.
In general, AC50 refers to the midpoint of the concentration-response curve, whichever way the signal moves. `Cc1cc(S(=O)(=O)Nc2csc(C3CCOCC3)n2)c(C)cc1Cl` [Example 167, 4-chloro-2,5-dimethyl-N-(2-(tetrahydro-2H-pyran-4-yl)thiazol-4-yl)benzenesulfonamide]: the AC50 came to 2 µM. Then `CC[C@@H]1CCCN1C(=O)c1cccc(NS(=O)(=O)c2cc(C)c(Cl)cc2C)c1` [Example 65, (R)-4-chloro-N-(3-(2-ethylpyrrolidine-1-carbonyl)phenyl)-2,5-dimethylbenzenesulfonamide], with 7 µM. In the case of `Cc1cc(S(=O)(=O)Nc2csc(-c3ccn(C)n3)n2)c(C)cc1Cl` [Example 181, 4-chloro-2,5-dimethyl-N-(2-(1-methyl-1H-pyrazol-3-yl)thiazol-4-yl)benzenesulfonamide] it was > 10 µM; in that of `Cc1cc(S(=O)(=O)Nc2csc(C(=O)N3CCCC3)n2)c(C)cc1Cl` [Example 166, 4-chloro-2,5-dimethyl-N-(2-(pyrrolidine-1-carbonyl)thiazol-4-yl)benzenesulfonamide], 0.4 µM. Turning to `Cc1cc(S(=O)(=O)Nc2csc(-c3ccncc3)n2)c(C)cc1Cl` [Example 176, 4-chloro-2,5-dimethyl-N-(2-(pyridin-4-yl)thiazol-4-yl)benzenesulfonamide], the AC50 was 0.3 µM. In the case of `Cc1cnc(-c2cccc(NS(=O)(=O)c3cc(C)c(Cl)cc3C)c2)s1` [Example 21, 4-chloro-2,5-dimethyl-N-(3-(5-methylthiazol-2-yl)phenyl)benzenesulfonamide] it was 3 µM. Then `Cc1cc(S(=O)(=O)Nc2cn(Cc3ccccc3)cn2)c(C)cc1Cl` [Example 168, N-(1-benzyl-1H-imidazol-4-yl)-4-chloro-2,5-dimethylbenzenesulfonamide], with > 100 µM; and `Cc1cc(S(=O)(=O)Nc2cn(C)c(-c3ccccc3)n2)c(C)cc1Cl` [Example 170, 4-chloro-2,5-dimethyl-N-(1-methyl-2-phenyl-1H-imidazol-4-yl)benzenesulfonamide], with > 10 µM. In the case of `Cc1cc(S(=O)(=O)Nc2cccc(-c3cc(C4CC4)[nH]n3)c2)c(C)cc1Cl` [Example 64, 4-chloro-N-(3-(5-cyclopropyl-1H-pyrazol-3-yl)phenyl)-2,5-dimethylbenzenesulfonamide] it was 4 µM; in that of `Cc1cc(S(=O)(=O)Nc2csc(-c3ccccn3)n2)c(C)cc1Cl` [Example 173, 4-chloro-2,5-dimethyl-N-(2-(pyridin-2-yl)thiazol-4-yl)benzenesulfonamide], 0.4 µM; in that of `Cc1cc(S(=O)(=O)Nc2csc(C(=O)N(C)CC(N)=O)n2)c(C)cc1Cl` [Example 172, N-(2-amino-2-oxoethyl)-4-((4-chloro-2,5-dimethylphenyl)sulfonamido)-N-methylthiazole-2-carboxamide], > 100 µM.

Turning to `Cc1cc(S(=O)(=O)Nc2csc(C(=O)N(CC(N)=O)C3CCCC3)n2)c(C)cc1Cl` [Example 177, N-(2-amino-2-oxoethyl)-4-((4-chloro-2,5-dimethylphenyl)sulfonamido)-N-cyclopentylthiazole-2-carboxamide], the AC50 was > 100 µM. Consider `Cc1cc(S(=O)(=O)Nc2cc(-c3nccs3)ccc2F)c(C)cc1Cl` [Example 61, 4-chloro-N-(2-fluoro-5-(thiazol-2-yl)phenyl)-2,5-dimethylbenzenesulfonamide], for which the AC50 was determined as 0.7 µM. Regarding `Cc1cc(S(=O)(=O)Nc2ccc(F)c(-c3nccs3)c2)c(C)cc1Cl` [Example 63, 4-chloro-N-(4-fluoro-3-(thiazol-2-yl)phenyl)-2,5-dimethylbenzenesulfonamide], the AC50 was > 100 µM.

On to `Cc1cc(S(=O)(=O)Nc2cccc(C(=O)N[C@H](C)c3ccccc3)c2)c(C)cc1Cl` [Example 48, (R)-3-((4-chloro-2,5-dimethylphenyl)sulfonamido)-N-(1-phenylethyl)benzamide], for which the AC50 came to 9 µM. Then `Cc1cc(S(=O)(=O)Nc2nc(-c3ccccc3)n(C)n2)c(C)cc1Cl` [Example 180, 4-chloro-2,5-dimethyl-N-(1-methyl-5-phenyl-1H-1,2,4-triazol-3-yl)benzenesulfonamide], with > 10 µM.

Take `Cc1cc(S(=O)(=O)Nc2csc(C(=O)N3CCC[C@H]3C)n2)c(C)cc1Cl` [Example 174, (R)-4-chloro-2,5-dimethyl-N-(2-(2-methylpyrrolidine-1-carbonyl)thiazol-4-yl)benzenesulfonamide]: the half-maximal activity concentration (AC50) amounted to 0.7 µM. In the case of `Cc1cc(S(=O)(=O)Nc2cnn(-c3ccccc3)n2)c(C)cc1Cl` [Example 171, 4-chloro-2,5-dimethyl-N-(2-phenyl-2H-1,2,3-triazol-4-yl)benzenesulfonamide] it was > 10 µM. Then `Cc1cc(S(=O)(=O)N(C)c2cccc(-c3nccs3)c2)c(C)cc1Cl` [Example 22, 4-chloro-N,2,5-trimethyl-N-(3-(thiazol-2-yl)phenyl)benzenesulfonamide], with > 100 µM; and `Cc1cc(S(=O)(=O)Nc2csc(C(=O)N(CC(N)=O)C3CCCCC3)n2)c(C)cc1Cl` [Example 179, N-(2-amino-2-oxoethyl)-4-((4-chloro-2,5-dimethylphenyl)sulfonamido)-N-cyclohexylthiazole-2-carboxamide], with > 10 µM. In the case of `Cc1cc(-c2cccc(NS(=O)(=O)c3cc(C)c(Cl)cc3C)c2)n[nH]1` [Example 66, 4-chloro-2,5-dimethyl-N-(3-(5-methyl-1H-pyrazol-3-yl)phenyl)benzenesulfonamide] it was 5 µM; in that of `Cc1cc(S(=O)(=O)Nc2cn(-c3ccccc3)cn2)c(C)cc1Cl` [Example 169, 4-chloro-2,5-dimethyl-N-(1-phenyl-1H-imidazol-4-yl)benzenesulfonamide], > 100 µM; in that of `Cc1cc(S(=O)(=O)Nc2csc(-n3cccn3)n2)c(C)cc1Cl` [Example 178, N-(2-(1H-pyrazol-1-yl)thiazol-4-yl)-4-chloro-2,5-dimethylbenzenesulfonamide], 1 µM.
